Test results taken from patent US10844057B2, “Process for preparing JAK inhibitors and intermediates thereof” (priority 2018, dated 2020).

Key:
[1] = molecular target: JAK2 (Homo sapiens (Human), UniProt O60674); assay: Biochemical JAK kinase assay (LanthaScreen), JAK2; settings: converted from pIC50 using Cheng-Prusoff; ATP 3 μM
Description: (§1) Assay 1: Biochemical JAK Kinase Assays
(§2) A panel of four LanthaScreen JAK biochemical assays (JAK1, 2, 3 and Tyk2) were carried in a common kinase reaction buffer (50 mM HEPES, pH 7.5, 0.01% Brij-35, 10 mM MgCl2, and 1 mM EGTA). Recombinant GST-tagged JAK enzymes and a GFP-tagged STAT1 peptide substrate were obtained from Life Technologies.
(§3) Serially diluted compounds were pre-incubated with each of the four JAK enzymes and the substrate in white 384-well microplates (Corning) at ambient temperature for 1 h. ATP was subsequently added to initiate the kinase reactions in 10 μL total volume, with 1% DMSO. […] Kinase reactions were allowed to proceed for 1 hour at ambient temperature before a 10 μL preparation of EDTA (10 mM final concentration) and Tb-anti-pSTAT1 (pTyr701) antibody (Life Technologies, 2 nM final concentration) in TR-FRET dilution buffer (Life Technologies) was added. The plates were allowed to incubate at ambient temperature for 1 h before being read on the EnVision reader (Perkin Elmer). Emission ratio signals (520 nm/495 nm) were recorded and utilized to calculate the percent inhibition values based on DMSO and background controls.
(§4) For dose-response analysis, percent inhibition data were plotted vs. compound concentrations, and IC50 values were determined from a 4-parameter robust fit model with the Prism software (GraphPad Software). Results were expressed as pIC50 (negative logarithm of IC50) and subsequently converted to pKi (negative logarithm of dissociation constant, Ki) using the Cheng-Prusoff equation.

[2] = molecular target: JAK3 (Homo sapiens (Human), UniProt P52333); assay: Biochemical JAK kinase assay (LanthaScreen), JAK3; settings: converted from pIC50 using Cheng-Prusoff; ATP 1.6 μM
Description: as §1, §2, §3, §4

[3] = molecular target: Tyk2 (Homo sapiens (Human), UniProt P29597); assay: Biochemical JAK kinase assay (LanthaScreen), Tyk2; settings: converted from pIC50 using Cheng-Prusoff; ATP 10 μM
Description: as §1, §2, §3, §4

[4] = molecular target: JAK1 (Homo sapiens (Human), UniProt P23458); assay: Biochemical JAK kinase assay (LanthaScreen), JAK1; settings: converted from pIC50 using Cheng-Prusoff; ATP 25 μM
Description: as §1, §2, §3, §4

Chain of Tyk2 (P29597 whole entry): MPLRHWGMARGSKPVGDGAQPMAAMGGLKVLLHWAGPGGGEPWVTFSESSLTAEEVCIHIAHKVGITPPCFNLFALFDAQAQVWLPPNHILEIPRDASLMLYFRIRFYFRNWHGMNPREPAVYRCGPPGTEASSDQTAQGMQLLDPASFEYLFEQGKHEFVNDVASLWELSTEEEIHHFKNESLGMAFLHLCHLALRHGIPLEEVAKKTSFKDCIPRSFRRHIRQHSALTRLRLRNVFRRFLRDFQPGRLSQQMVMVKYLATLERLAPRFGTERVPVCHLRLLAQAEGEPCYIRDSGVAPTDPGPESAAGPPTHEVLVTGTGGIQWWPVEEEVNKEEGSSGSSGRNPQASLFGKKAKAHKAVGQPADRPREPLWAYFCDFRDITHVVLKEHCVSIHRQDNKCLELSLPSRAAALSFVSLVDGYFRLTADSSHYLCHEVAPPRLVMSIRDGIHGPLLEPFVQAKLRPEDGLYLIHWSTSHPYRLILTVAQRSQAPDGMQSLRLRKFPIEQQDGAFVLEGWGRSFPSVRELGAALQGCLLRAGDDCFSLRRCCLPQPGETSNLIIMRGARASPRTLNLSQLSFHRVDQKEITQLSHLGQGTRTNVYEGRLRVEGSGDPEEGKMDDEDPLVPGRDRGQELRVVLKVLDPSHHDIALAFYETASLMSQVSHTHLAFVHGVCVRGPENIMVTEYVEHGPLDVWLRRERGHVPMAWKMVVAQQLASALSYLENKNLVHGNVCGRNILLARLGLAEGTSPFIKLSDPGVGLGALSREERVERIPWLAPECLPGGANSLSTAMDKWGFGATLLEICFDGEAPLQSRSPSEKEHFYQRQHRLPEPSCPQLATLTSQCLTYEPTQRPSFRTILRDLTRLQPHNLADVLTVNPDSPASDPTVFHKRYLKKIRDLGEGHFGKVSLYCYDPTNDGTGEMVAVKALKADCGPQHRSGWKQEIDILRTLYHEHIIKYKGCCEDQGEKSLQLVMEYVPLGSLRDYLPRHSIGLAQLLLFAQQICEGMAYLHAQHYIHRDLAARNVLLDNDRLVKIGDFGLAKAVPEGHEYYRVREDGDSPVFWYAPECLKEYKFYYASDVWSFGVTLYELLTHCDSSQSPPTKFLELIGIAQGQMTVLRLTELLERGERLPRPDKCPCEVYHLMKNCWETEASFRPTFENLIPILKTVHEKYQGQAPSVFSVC
Chain of JAK1 (P23458 whole entry): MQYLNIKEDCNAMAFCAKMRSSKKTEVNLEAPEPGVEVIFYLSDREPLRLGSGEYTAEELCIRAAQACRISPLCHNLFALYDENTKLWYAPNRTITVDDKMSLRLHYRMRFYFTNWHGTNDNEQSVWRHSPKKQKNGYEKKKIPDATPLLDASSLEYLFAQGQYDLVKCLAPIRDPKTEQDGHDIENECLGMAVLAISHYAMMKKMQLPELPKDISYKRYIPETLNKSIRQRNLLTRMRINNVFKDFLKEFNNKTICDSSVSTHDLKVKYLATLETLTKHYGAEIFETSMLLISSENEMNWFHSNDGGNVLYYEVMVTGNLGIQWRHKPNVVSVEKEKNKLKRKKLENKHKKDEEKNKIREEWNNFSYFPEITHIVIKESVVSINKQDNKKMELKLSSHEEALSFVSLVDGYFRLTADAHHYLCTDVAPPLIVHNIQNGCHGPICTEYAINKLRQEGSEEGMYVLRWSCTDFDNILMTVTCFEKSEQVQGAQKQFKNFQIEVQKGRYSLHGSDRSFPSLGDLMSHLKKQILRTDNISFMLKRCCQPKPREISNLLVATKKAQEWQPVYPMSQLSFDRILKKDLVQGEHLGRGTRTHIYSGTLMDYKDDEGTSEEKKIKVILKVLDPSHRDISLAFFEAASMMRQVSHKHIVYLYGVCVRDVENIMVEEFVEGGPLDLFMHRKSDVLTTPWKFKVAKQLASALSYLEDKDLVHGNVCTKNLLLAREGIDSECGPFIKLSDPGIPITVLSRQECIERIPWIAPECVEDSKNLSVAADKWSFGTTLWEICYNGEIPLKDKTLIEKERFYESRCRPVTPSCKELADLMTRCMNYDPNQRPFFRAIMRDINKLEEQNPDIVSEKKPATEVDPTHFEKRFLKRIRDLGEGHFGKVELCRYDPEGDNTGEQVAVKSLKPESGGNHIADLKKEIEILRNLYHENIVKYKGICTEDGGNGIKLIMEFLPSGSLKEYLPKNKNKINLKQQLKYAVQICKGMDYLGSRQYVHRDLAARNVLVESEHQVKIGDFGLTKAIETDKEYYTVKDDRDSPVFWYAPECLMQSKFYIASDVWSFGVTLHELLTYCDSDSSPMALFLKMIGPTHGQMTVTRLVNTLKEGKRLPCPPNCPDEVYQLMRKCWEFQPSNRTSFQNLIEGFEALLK
Chain of JAK3 (P52333 whole entry): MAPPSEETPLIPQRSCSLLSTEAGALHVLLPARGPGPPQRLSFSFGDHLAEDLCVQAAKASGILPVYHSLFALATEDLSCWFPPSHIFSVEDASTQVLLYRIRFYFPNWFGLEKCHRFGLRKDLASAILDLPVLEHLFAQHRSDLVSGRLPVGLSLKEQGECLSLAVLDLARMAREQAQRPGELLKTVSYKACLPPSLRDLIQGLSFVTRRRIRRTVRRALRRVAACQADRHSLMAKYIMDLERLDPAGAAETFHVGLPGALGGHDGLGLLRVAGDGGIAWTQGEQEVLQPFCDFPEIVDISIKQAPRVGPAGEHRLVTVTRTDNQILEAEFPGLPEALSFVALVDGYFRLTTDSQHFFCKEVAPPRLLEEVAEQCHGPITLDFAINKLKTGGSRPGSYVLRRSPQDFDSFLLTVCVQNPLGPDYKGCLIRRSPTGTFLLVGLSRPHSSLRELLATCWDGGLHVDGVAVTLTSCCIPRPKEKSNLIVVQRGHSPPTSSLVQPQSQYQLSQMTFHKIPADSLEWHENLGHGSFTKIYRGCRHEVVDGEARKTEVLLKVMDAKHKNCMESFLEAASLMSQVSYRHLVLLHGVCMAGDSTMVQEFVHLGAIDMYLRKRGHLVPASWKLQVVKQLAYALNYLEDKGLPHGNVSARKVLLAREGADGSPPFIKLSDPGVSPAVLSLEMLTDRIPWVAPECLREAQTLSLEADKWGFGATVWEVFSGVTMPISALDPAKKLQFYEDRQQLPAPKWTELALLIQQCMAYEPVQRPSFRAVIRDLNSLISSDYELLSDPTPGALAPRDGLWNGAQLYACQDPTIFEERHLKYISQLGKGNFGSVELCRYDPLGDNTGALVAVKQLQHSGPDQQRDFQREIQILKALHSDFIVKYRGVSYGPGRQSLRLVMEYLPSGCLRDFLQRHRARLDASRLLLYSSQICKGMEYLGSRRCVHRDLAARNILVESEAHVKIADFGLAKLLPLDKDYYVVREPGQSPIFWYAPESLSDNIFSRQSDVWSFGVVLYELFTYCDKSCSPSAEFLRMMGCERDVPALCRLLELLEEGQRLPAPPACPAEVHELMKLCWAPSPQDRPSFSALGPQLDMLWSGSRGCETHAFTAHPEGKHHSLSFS
Chain of JAK2 (O60674 whole entry): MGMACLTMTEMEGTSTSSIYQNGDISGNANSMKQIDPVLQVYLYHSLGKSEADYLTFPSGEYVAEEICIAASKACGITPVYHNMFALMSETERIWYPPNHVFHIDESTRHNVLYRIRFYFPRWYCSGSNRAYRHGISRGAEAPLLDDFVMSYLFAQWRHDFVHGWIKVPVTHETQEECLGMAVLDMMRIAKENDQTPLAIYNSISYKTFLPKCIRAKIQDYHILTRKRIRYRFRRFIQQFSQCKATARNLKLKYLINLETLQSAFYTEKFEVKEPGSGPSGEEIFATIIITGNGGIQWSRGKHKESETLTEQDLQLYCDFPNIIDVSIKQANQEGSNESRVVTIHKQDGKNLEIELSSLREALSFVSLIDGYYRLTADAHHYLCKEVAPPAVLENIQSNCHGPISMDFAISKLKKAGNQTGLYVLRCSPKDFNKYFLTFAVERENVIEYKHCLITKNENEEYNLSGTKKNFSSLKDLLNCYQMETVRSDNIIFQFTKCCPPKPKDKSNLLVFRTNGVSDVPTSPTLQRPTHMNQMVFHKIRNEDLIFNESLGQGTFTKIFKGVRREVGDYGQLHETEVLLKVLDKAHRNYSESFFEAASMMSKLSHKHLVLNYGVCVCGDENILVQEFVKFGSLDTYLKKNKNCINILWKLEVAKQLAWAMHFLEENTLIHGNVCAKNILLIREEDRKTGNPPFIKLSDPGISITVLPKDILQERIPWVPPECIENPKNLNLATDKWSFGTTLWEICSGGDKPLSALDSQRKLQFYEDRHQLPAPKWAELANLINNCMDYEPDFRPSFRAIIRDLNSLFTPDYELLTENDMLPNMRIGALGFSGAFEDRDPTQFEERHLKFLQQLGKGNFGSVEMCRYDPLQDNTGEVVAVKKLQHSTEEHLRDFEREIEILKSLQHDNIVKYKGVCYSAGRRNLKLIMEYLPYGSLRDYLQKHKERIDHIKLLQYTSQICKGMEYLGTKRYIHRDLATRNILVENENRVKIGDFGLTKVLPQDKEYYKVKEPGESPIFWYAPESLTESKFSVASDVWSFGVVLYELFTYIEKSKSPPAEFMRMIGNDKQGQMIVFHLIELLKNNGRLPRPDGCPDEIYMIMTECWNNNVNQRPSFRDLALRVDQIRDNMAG

CCc1cc(O)c(F)cc1-c1ccc2c(-c3nc4c([nH]3)CN(C(C)C)[C@H](C(=O)N3CC(N(C)C)C3)C4)n[nH]c2c1 [Example 8, (S)-(3-(dimethylamino)azetidin-1-yl)(2-(6-(2-ethyl-5-fluoro-4-hydroxyphenyl)-1H-indazol-3-yl)-5-isopropyl-4,5,6,7-tetrahydro-3H-imidazo[4,5-c]pyridin-6-yl)methanone]
JAK2 pKi [1]: 10.8 | JAK3 pKi [2]: 10.1 | Tyk2 pKi [3]: 9.5 | JAK1 pKi [4]: 10.4
